Results taken from patent US20250134863A1, “MEDICAL AGENT FOR TREATING OR SUPPRESSING PROGRESSION OF AMYOTROPHIC LATERAL SCLEROSIS” (MITSUBISHI TANABE PHARMA CORPORATION, priority 2022, published 2025).

Tests used:
ALS patients [1] = test: MCI186-19 trial (19 trial), randomized double-blind placebo-controlled phase 3, edaravone injection, ALSFRS-R; format: in vivo, human; conditions: edaravone group, placebo −7.50±0.66, p=0.0013
From the text: Clinical trials using edaravone injections include two-group phase 3 trials. In the first phase 3 trials [MCI186-16 trial (hereinafter referred to as the 16 trial) and MCI186-17 trial (hereinafter referred to as the 17 trial)], it was shown that edaravone was involved in suppressing decline in ALS function compared to placebo, as evaluated by an ALSFRS-R total score. A subgroup showing a significant therapeutic effect of Edaravone has been identified by the 16 trial, and an inclusion criterion for this subgroup is also used in designing a second major phase 3 trial, that is, a 19 trial (MCI186-19).
(§1) Edaravone was administered at a dose of 60 mg by intravenous infusion over 60 minutes, once daily. The infusion was given for 14 days in the first treatment cycle, and for 10 days out of the 14-day treatment period in all subsequent cycles. A 14-day drug holiday period was provided after each treatment cycle.
The MCI186-19 trial (hereinafter referred to as the 19 trial) was a randomized, double-blind, parallel-group, placebo-controlled trial. Details of the trial are as described in NCT01492686, Reference 3 (Lancet Neurol 2017; 16 (7): 505-512) and Reference 4 (Amyotroph Lateral Scler Frontotemporal Degener 2017; 18 (suppl 1): 55-63). […]

ALS patients [2] = test: Post-hoc statistical analysis 2: uric acid levels from baseline to cycle 12 (16, 17 and 19 trials); format: in vivo, human; conditions: placebo-controlled double-blind period (cycles 1-6); edaravone group vs placebo group
ALS patients [3] = test: Post-hoc statistical analysis 2: ALSFRS-R total score from baseline to cycle 12 (16, 17 and 19 trials), MMRM; format: in vivo, human
From the text: (§2) After a 12-week observation period, patients whose ALSFRS-R total score decreased by 1 to 4 points during that period were considered eligible for the trial. In the 16 trial, eligible patients were randomly divided into an edaravone treatment group and a placebo administration group, and patients in each group received administration for 24 weeks (cycles 1 to 6). After completing the 24-week double-blind portion of the 16 trial, patients who received edaravone (E) were randomly assigned to the 17 trial, and during a 24-week double-blind extension period (cycles 7 to 12), edaravone treatment (EE group) or placebo administration (EP group) was performed. On the other hand, all patients from the placebo (P) administration group received edaravone treatment (PE group). All patients received open-label edaravone treatment for the next 12 weeks (cycles 13 to 15).
as §1
(§3) Similar to the 16 trial, after a 12-week observation period, patients in the 19 trial were randomly divided into an edaravone treatment group and a placebo administration group, and patients in each group received administration for 24 weeks (cycles 1 to 6). In the 19 trial, after the double-blind treatment period, all patients received open-label edaravone treatment for an additional 24 weeks (cycles 7 to 12). Therefore, the 19 trial included an EE group and a PE group.
(§4) In order to characterize the uric acid level and ALSFRS-R total score profiles at cycle 12, efficacy was analyzed in randomized ALS patients at the start of cycle 7 and randomized ALS patients who received the medical agent at least once after the start of cycle 7.
(§5) Descriptive statistics (number of subjects, mean, standard deviation, minimum, maximum) were used to summarize the changes in uric acid levels (mg/dL) and ALSFRS-R total scores from baseline to cycle 12 for the entire population and for the Edaravone treatment group as a subgroup defined by the median baseline uric acid level (4.8 mg/dL). The median baseline uric acid level for all patients (4.8 mg/dL) was derived using the entire edaravone population, including the EE, PE, and EP groups in the 16 trial, the 17 trial, and the 19 trial.
The least squares (LS) mean difference of the EE and EP treatment groups compared to the PE treatment group was estimated using a mixed-effects model for repeated measures (MMRM). By using the MMRM, the LS mean, standard error, 95% confidence interval (CI), and p-value for each group are calculated. The MMRM includes treatment group, time point, interaction between treatment group and time point, age (<65 years or >65 years), initial symptoms (bulbar or limb symptoms), ALS diagnostic criteria (ALS definite, ALS highly possible, ALS highly possible with positive test findings, ALS possible), change in ALSFRS-R total score during the 12-week observation period (−1/−2 or −3/−4), and use of riluzole (Yes or No) as fixed effects, and includes baseline of the ALSFRS-R total score or uric acid baseline (mg/dL) of the median subgroup as covariates. A compound symmetric covariance matrix was applied to model covariance of within-patient scores, and the Kenward-Roger approximation was applied to estimate a degrees of freedom of the criteria. The statistical significance level was set at a two-sided level of 0.05.

ALS patients [4] = conditions: 18 trial; ALS severity of grade 3; very small number of cases; cited from earlier work
ALS patients [5] = test: Post-hoc statistical analysis 2: uric acid levels from baseline to cycle 12 (16, 17 and 19 trials); format: in vivo, human
From the text: as §2, §1, §3
The blood uric acid levels in the 16 trial, 17 trial, and 19 trial were measured values obtained using the uricase-peroxidase method.
as §4, §5

[6] = Overall, EE group, listed as Edaravone
[7] = Overall, Edaravone-Edaravone (EE) group
[8] = Overall, Edaravone-Placebo (EP) group
[9] = Overall, Placebo-Edaravone (PE) group
[10] = Subgroup with uric acid level baseline <4.8 mg/dL, EE group
[11] = Subgroup with uric acid level baseline <4.8 mg/dL, EP group
[12] = Subgroup with uric acid level baseline <4.8 mg/dL, PE group
[13] = Subgroup with uric acid level baseline ≥4.8 mg/dL, EE group
[14] = Subgroup with uric acid level baseline ≥4.8 mg/dL, EE group, listed as Edaravone
[15] = Subgroup with uric acid level baseline ≥4.8 mg/dL, EP group
[16] = Subgroup with uric acid level baseline ≥4.8 mg/dL, PE group

CC1=NN(c2ccccc2)C(=O)C1 [edaravone, 3-methyl-1-phenyl-2-pyrazolin-5-one]
LS mean±standard error of the change in ALSFRS-R from baseline to 24 weeks (ALS patients [1]): −5.01±0.64
decrease in uric acid levels from baseline at cycle 6 (ALS patients [2]): smaller decrease in uric acid levels compared to the placebo group
ALSFRS-R total score change from BL to cycle 12, LS Mean (SE) (ALS patients [3]; Overall, EE group): −7.2 (1.17) points
ALSFRS-R total score change from BL to cycle 12, Mean (SD) (ALS patients [3]; Overall, EE group): −8.1 points
ALSFRS-R total score change from BL to cycle 12, Mean (SD) (ALS patients [3]; [6]): −8.1 (5.97) points
ALSFRS-R total score change from BL to cycle 12, LS Mean (SE) (ALS patients [3]; Overall, EP group): −8.7 (1.28) points
ALSFRS-R total score change from BL to cycle 12, Mean (SD) (ALS patients [3]; Overall, EP group): −9.6 (6.88) points
ALSFRS-R total score at Cycle 12, Mean (SD) (ALS patients [3]; [7]): 33.3 (7.66) points
ALSFRS-R total score at Cycle 12, Mean (SD) (ALS patients [3]; [8]): 31.3 (7.74) points
ALSFRS-R total score change from BL to cycle 12, LS Mean (SE) (ALS patients [3]; Overall, PE group): −9.9 (1.12) points
ALSFRS-R total score change from BL to cycle 12, Mean (SD) (ALS patients [3]; Overall, PE group): −10.3 (7.70) points
ALSFRS-R total score at Cycle 12, Mean (SD) (ALS patients [3]; [9]): 31.2 (8.64) points
ALSFRS-R total score at Cycle 12, Mean (SD) (ALS patients [3]; [10]): 32.6 (8.48) points
ALSFRS-R total score change from BL to cycle 12, LS Mean (SE) (ALS patients [3]; [10]): −7.0 (1.38) points
ALSFRS-R total score change from BL to cycle 12, Mean (SD) (ALS patients [3]; [10]): −8.7 points
ALSFRS-R total score change from BL to cycle 12, Mean (SD) (ALS patients [3]; Subgroup with uric acid level baseline <4.8 mg/dL, EE group, listed as Edaravone): −8.7 (6.95) points
ALSFRS-R total score at Cycle 12, Mean (SD) (ALS patients [3]; [11]): 31.5 (7.66) points
ALSFRS-R total score change from BL to cycle 12, LS Mean (SE) (ALS patients [3]; [11]): −7.8 (1.78) points
ALSFRS-R total score change from BL to cycle 12, Mean (SD) (ALS patients [3]; [11]): −9.7 (7.17) points
ALSFRS-R total score at Cycle 12, Mean (SD) (ALS patients [3]; [12]): 31.6 (7.99) points
ALSFRS-R total score change from BL to cycle 12, LS Mean (SE) (ALS patients [3]; [12]): −8.5 (1.37) points
ALSFRS-R total score change from BL to cycle 12, Mean (SD) (ALS patients [3]; [12]): −9.7 (7.30) points
ALSFRS-R total score at Cycle 12, Mean (SD) (ALS patients [3]; [13]): 34.0 (6.65) points
ALSFRS-R total score change from BL to cycle 12, LS Mean (SE) (ALS patients [3]; [13]): −8.1 (0.91) points
ALSFRS-R total score change from BL to cycle 12, Mean (SD) (ALS patients [3]; [13]): −7.4 points
ALSFRS-R total score change from BL to cycle 12, Mean (SD) (ALS patients [3]; [14]): −7.4 (4.63) points
ALSFRS-R total score at Cycle 12, Mean (SD) (ALS patients [3]; [15]): 31.1 (7.97) points
ALSFRS-R total score change from BL to cycle 12, LS Mean (SE) (ALS patients [3]; [15]): −10.3 (1.05) points
ALSFRS-R total score change from BL to cycle 12, Mean (SD) (ALS patients [3]; [15]): −9.5 (6.82) points
ALSFRS-R total score at Cycle 12, Mean (SD) (ALS patients [3]; [16]): 30.8 (9.20) points
ALSFRS-R total score change from BL to cycle 12, LS Mean (SE) (ALS patients [3]; [16]): −12.0 (0.77) points
ALSFRS-R total score change from BL to cycle 12, Mean (SD) (ALS patients [3]; [16]): −10.9 (8.03) points
change in ALSFRS-R total score compared to placebo (ALS patients [4]): no statistically significant difference was observed compared to placebo
Uric acid level change from BL to cycle 12, Mean (SD) (ALS patients [5]; Overall, EE group): -0.25 mg/dL
Uric acid level change from BL to cycle 12, Mean (SD) (ALS patients [5]; [6]): −0.25 (0.86) mg/dL
Uric acid level change from BL to cycle 12, Mean (SD) (ALS patients [5]; Overall, EP group): -0.22 mg/dL
Uric acid level change from BL to cycle 12, Mean (SD) (ALS patients [5]; Overall, EP group, listed as Edaravone): −0.22 (0.77) mg/dL
Uric acid level at Cycle 12, Mean (SD) (ALS patients [5]; [7]): 4.4 (1.36) mg/dL
Uric acid level at Cycle 12, Mean (SD) (ALS patients [5]; [8]): 4.9 (1.20) mg/dL
Uric acid level change from BL to cycle 12, Mean (SD) (ALS patients [5]; Overall, PE group): -0.37 mg/dL
Uric acid level change from BL to cycle 12, Mean (SD) (ALS patients [5]; Overall, PE group, listed as Edaravone): −0.37 (0.86) mg/dL
Uric acid level at Cycle 12, Mean (SD) (ALS patients [5]; [9]): 4.5 (1.32) mg/dL
Uric acid level at Cycle 12, Mean (SD) (ALS patients [5]; [10]): 3.6 (0.85) mg/dL
Uric acid level change from BL to cycle 12, Mean (SD) (ALS patients [5]; [10]): −0.10 (0.69) mg/dL
Uric acid level at Cycle 12, Mean (SD) (ALS patients [5]; [11]): 4.1 (0.93) mg/dL
Uric acid level change from BL to cycle 12, Mean (SD) (ALS patients [5]; [11]): 0.15 (0.64) mg/dL
Uric acid level at Cycle 12, Mean (SD) (ALS patients [5]; [12]): 3.6 (0.95) mg/dL
Uric acid level change from BL to cycle 12, Mean (SD) (ALS patients [5]; [12]): 0.00 (0.71) mg/dL
Uric acid level at Cycle 12, Mean (SD) (ALS patients [5]; [13]): 5.4 (1.21) mg/dL
Uric acid level change from BL to cycle 12, Mean (SD) (ALS patients [5]; [13]): -0.4 mg/dL
Uric acid level change from BL to cycle 12, Mean (SD) (ALS patients [5]; [14]): −0.41 (1.01) mg/dL
Uric acid level at Cycle 12, Mean (SD) (ALS patients [5]; [15]): 5.5 (1.04) mg/dL
Uric acid level change from BL to cycle 12, Mean (SD) (ALS patients [5]; [15]): -0.48 mg/dL
Uric acid level change from BL to cycle 12, Mean (SD) (ALS patients [5]; Subgroup with uric acid level baseline ≥4.8 mg/dL, EP group, listed as Edaravone): −0.48 (0.77) mg/dL
Uric acid level at Cycle 12, Mean (SD) (ALS patients [5]; [16]): 5.2 (1.17) mg/dL
Uric acid level change from BL to cycle 12, Mean (SD) (ALS patients [5]; [16]): -0.68 mg/dL
Uric acid level change from BL to cycle 12, Mean (SD) (ALS patients [5]; Subgroup with uric acid level baseline ≥4.8 mg/dL, PE group, listed as Edaravone): −0.68 (0.86) mg/dL
